Laboratory results reported in patent US20090182028A1, “Plant Components and Extracts and Uses Thereof” (G.I.M. GESELLSCHAFT-FUR INNOVATIVE MEDIZIN G.M.B.H NFG OHG, priority 2006, published 2009).
Entries after “also recorded” stand apart in the source; their conditions may differ. Like-named read-outs stand apart in the source and are kept apart here.

Legend:
Format in all cases: cell-based
human AhR [1] = target: T1, human AhR (Homo sapiens, UniProt P35869); test: Yeast AhR screen (strain YCM3), assay in plastic tubes
T1 construct: expressed in transfected cells; host or cells: Saccharomyces cerevisiae strain YCM3 (gift of Charles Miller)
Excerpt: (§1) The yeast AhR screen is an in-vitro test to detect transactivating potential of substances on the arylhydrocarbon receptor. The recombinant yeast strain YCM3 of Saccharomyces cerevisiae, which was a present of Charles Miller, was used. The assay procedure was essentially as described by Miller. The human AhR and ARNT genes are integrated into chromosome III of the yeast. The galactose-regulated GAL 1, 10 promotor is accountable for the expression of AhR and ARNT in equal shares by induction with galactose, the carbon source of the medium (GOLD medium-trp). If a ligand of the AhR is present, an AhR/ARNT heterodimer is built and can bind to the five xenobiotic response elements of the lacZ-reporter plasmid and induce the expression of the lacZ-gene. Therefore the transcriptional activation of a ligand is quantified via β-galactosidase activity. […] The yeast AhR assay was performed in 50 ml plastic tubes with conical bottom and in microtiterplates.
A colony of YCM3 was transferred in SCM-trp medium and grown to OD600 of about 2.0. For each experiment a new overnight culture was prepared in SCM-trp medium. For this purpose a 1:10 dilution of the YCM3 yeast stock in SCM-trp medium was prepared. After incubation overnight the culture was diluted to an OD600 of 0.4 and grown again to an OD600 of 1.0 to 1.5. For the assay the culture was 1:50 diluted in Gold galactose-trp media, which contains 1.2% galactose as the inductor. 50 μl of test substance (dissolved in DMSO) and 5 ml of this yeast culture were incubated for 17 h at 30° C. while shaking. The tubes have to be in an inclined position for optimal yeast growth. For the blank only 50 μl of DMSO were added to the yeast culture. A calibration curve with β-naphtoflavone was performed within each test run. After incubation cells were collected by centrifugation at 2500 rpm for 5 min. The supernatant was discarded, the pellets were resuspended in 1 ml lacZ-buffer, transferred into 1.5 ml test tubes and centrifuged at 10 000 rpm and 4° C. for 5 min. The supernatant was removed again and the pellets were resuspended in 100 μl lacZ buffer. Disintegration of the yeast cells was performed by vortexing with glass beads (3 times for 30 s with a rest on ice of 15 s between the vortexes). After centrifugation at 10 000 rpm and 4° C. for 10 min, the clear supernatant was used to perform the β-galactosidase and the protein-assay.
For the β-galactosidase-assay 5 μl from each test tube were transferred to a 96-well microtiterplate. 250 μl of a 1:6 diluted o-nitrophenyl-b-galactopyranoside (ONPG)-solution (dilution with lacZ-buffer) were added to each well. The microtiterplate was incubated at 37° C. until a yellow colour had developed. The reaction was stopped by adding 100 μl of 1 M Na2CO3 and the reaction time was noticed. […] Each determination was carried out in duplicates.
For the protein assay a modified method according to Bradford was performed. 5 μl of the supernatant of each test tube were transferred to the microtiterplate and 250 μl of Bio-Rad protein assay reagent (diluted with water 1:10) were added. […] As reference a standard curve with BSA was employed within each test. Each determination was carried out in duplicates.
The expression of β-galactosidase is equivalent to the quantity of the transactivating activity of substances and samples. The specific enzyme activity is expressed in AhR-units, which are the β-galactosidase-activity normalised to the total protein-level. The data were evaluated according Jungbauer et al..
(§2) For evaluation the AhR-units are plotted against the concentration (logarithmic scaling). The resulting curve is fitted using a logistic dose response function. The calculation and fitting was performed with Table Curve 2D software (Jandel Scientific).

human AhR [2] = target: T1, human AhR; test: Yeast AhR screen (strain YCM3), assay in microtiterplate
Excerpt: as §1
A colony of YCM3 was transferred in SCM-trp medium and grown to OD600 of about 2.0. For each experiment a new overnight culture was prepared in SCM-trp. For this purpose a 1:10 dilution of the YCM3 yeast stock in SCM-trp medium was prepared. After incubation overnight the culture was diluted to an OD600 of 0.4 and grown again to an OD600 of 1.0 to 1.5. For the assay the culture was 1:50 diluted in Gold galactose-trp media, which contains 1.2% galactose as the inductor.
1 μl of test substance (dissolved in DMSO) and 100 μl of the yeast culture in galactose media were transferred in the wells (flat bottom) of a 96-well sterile microtiterplate. Each determination was carried out in duplicates. A calibration curve with β-naphtoflavone was performed within each test run. For better results only the inner part of the plate was used for the assay, because of a greater evaporation in the outer wells (row A and H, column 1 and 12). 150 μl of the diluted yeast culture were transferred into the outer wells. The microtiterplate was incubated for 17 h at 30° C. and while shaking.
The disintegration of the assay was performed with N-lauroylsarcosine, a strong detergent. A related method was described by Kippert, who used 1.5 ml centrifuge tubes and a disintegration with a 0.2% sarcosyl-solution. For the microtiterplate assay a modified version was used and the disintegration was performed via a 0.5% sarcosyl-solution. To circumvent a centrifugation of the plate and a transfer of the supernatant in another plate, what would complicate the assay unnecessarily, the calculation of the AhR-units was related to the optical density of 600 nm, instead of the protein level. A similar proceeding was applied by Adachi et al. and Miller.
After incubation 150 μl Z-Sarcosyl-buffer to each well were added. Then the OD was measured at 600 nm. For complete disintegration of the cells the plate was incubated for 20 min at 30° C. Afterwards 50 μl of ONPG-solution (a 1:6 diluted) were added to each well and incubated at 37° C. until a yellow colour had developed. The reaction was stopped by adding of 50 μl 1 M Na2CO3 and the reaction time was noticed. The absorption was measured at 405 nm (reference wavelength 620 nm).
The results of the β-galactosidase-assay of the AhR screen in microtiterplates were referenced to cell density (measured as the optical cell density at a wavelength of 600 nm). The calculation of the AhR-units is realised as follows:
OD405 and OD600 are the optical densities at a wavelength of 405 nm respectively 600 nm and Δt is the incubation time at 37° C. in minutes.
as §2

human AhR [3] = target: T1, human AhR; test: Yeast AhR assay, format (tubes or microtiterplate) not stated
Excerpt: as §1, §2
The equivalent concentrations of the extracts and samples were calculated from the logistic dose-response curve of β-naphtoflavone (FIG. 8) and expressed as nmol β-naphtoflavone per g sample or volume of sample.

[4] = in plastic tubes, logistic dose response fit
[5] = in microtiterplate, logistic dose response fit, read-out: Potency
[6] = in microtiterplate, logistic dose response fit

T1 sequence (P35869 11-848): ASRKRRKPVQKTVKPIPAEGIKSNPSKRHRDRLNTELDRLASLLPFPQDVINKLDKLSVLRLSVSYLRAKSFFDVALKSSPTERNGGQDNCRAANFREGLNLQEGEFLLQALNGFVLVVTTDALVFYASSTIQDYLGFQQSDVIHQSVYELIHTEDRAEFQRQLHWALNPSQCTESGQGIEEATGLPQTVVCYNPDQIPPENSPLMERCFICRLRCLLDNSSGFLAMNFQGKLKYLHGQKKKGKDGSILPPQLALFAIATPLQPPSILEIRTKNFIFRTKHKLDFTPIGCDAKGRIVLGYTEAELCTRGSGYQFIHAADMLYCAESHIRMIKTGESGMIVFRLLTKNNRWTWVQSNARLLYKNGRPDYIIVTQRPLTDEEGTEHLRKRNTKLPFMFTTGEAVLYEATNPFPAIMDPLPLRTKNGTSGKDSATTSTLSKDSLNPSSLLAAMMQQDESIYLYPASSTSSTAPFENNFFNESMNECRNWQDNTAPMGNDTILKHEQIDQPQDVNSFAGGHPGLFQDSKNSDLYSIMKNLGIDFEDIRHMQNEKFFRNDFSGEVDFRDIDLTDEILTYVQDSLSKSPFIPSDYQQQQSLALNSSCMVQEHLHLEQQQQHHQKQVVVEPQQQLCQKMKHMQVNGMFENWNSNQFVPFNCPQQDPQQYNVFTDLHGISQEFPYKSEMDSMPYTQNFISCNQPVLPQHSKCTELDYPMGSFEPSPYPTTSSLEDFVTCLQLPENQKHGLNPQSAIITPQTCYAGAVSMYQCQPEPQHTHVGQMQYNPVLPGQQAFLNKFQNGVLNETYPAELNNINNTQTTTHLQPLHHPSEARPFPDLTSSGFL
T1 sequence (P27540 whole entry partner): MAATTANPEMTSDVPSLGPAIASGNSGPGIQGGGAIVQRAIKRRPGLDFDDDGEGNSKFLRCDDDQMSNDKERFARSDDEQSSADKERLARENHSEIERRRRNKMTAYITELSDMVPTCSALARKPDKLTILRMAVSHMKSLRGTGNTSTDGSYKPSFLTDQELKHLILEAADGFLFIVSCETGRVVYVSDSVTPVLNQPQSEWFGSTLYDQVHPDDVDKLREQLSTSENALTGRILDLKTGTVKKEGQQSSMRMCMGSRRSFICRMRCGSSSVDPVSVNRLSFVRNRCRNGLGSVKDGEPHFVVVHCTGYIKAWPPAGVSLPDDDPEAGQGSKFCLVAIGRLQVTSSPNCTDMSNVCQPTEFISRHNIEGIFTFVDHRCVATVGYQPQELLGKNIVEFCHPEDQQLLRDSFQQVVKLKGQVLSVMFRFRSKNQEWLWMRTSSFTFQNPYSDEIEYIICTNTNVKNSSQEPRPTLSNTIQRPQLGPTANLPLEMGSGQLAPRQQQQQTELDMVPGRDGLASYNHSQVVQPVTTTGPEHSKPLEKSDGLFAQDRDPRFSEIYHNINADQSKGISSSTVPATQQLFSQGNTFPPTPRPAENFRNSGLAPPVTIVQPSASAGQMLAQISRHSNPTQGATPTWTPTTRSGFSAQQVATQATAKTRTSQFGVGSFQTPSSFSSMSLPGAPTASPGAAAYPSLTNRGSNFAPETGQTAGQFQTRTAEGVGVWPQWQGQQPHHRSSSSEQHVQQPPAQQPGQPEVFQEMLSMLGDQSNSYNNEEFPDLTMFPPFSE

CC/C(=C(/CC)c1ccc(O)cc1)c1ccc(O)cc1 [diethylstilbestrol]
transactivation of the AhR (in words) (human AhR [1]; pure compounds in DMSO): failed also in transactivating the AhR

O=c1c(-c2ccc(O)cc2)coc2cc(O)ccc12 [Daidzein]
Potency (mol/l) (human AhR [1]): no activity

O=C(O)/C=C/c1ccc(O)c(O)c1 [Caffeic acid]
Potency (mol/l) (human AhR [1]; [4]): no activity
transactivation of the AhR (in words) (human AhR [1]; pure compounds in DMSO): no activity

O=c1c(O)c(-c2ccc(O)c(O)c2)oc2cc(O)cc(O)c12 [Quercetin]
Potency (mol/l) (human AhR [1]; [4]): no activity
transactivation of the AhR (in words) (human AhR [1]; pure compounds in DMSO): no activity; also recorded: do not activate the AhR

COc1ccc(-c2cc(=O)c3c(O)cc(O[C@@H]4O[C@H](CO[C@@H]5O[C@@H](C)[C@H](O)[C@@H](O)[C@H]5O)[C@@H](O)[C@H](O)[C@H]4O)cc3o2)cc1O [Diosmin]
Potency (mol/l) (human AhR [1]; [4]): no activity

Oc1ccc([C@H]2COc3cc(O)ccc3C2)cc1 [Equol]
Potency (mol/l) (human AhR [1]): active^c
transactivation of the AhR (in words) (human AhR [1]; pure compounds in DMSO): a transactivation took place
Potency (mol/l) (human AhR [2]): active^c

O=c1c(-c2ccc(O)cc2)coc2cc(O)cc(O)c12 [Genistein]
Potency (mol/l) (human AhR [1]; [4]): no activity
transactivation of the AhR (in words) (human AhR [1]; pure compounds in DMSO): no transcriptional activity; also recorded: do not activate the AhR

O=c1cc(-c2ccccc2)oc2ccc3ccccc3c12 [β-Naphtoflavone]
EC50 (human AhR [1]; in plastic tubes, logistic dose response fit, read-out: Potency): 0.01 µM
EC50 (human AhR [3]; Example 10 text, read-out: EC50 value of the standard compound): ~0.01 µM
EC50 (human AhR [3]; reference standard, read-out: EC50 value): 0.028 µM
EC50 (human AhR [2]; [5]): 0.28 µM

O=c1oc2cc(O)ccc2c2oc3cc(O)ccc3c12 [Coumestrol]
EC50 (human AhR [1]): 2.09 µM
EC50 (human AhR [2]): 1.04 µM

O=C(Cc1c[nH]c2ccccc12)c1ccco1 [compound “X”, 1-(2-furanyl)2-(3-indolyl)ethanone]
equivalent concentration (human AhR [3]; preliminary isolate from preparative HPLC): 79 μmol β-naphtoflavone per gram sample

O=C1C[C@@H](c2ccc(O)cc2)Oc2cc(O)cc(O)c21 [Naringenin]
Potency (mol/l) (human AhR [1]; [4]): active ^c
transactivation of the AhR (in words) (human AhR [1]; pure compounds in DMSO): a transactivation took place
Potency (mol/l) (human AhR [2]; [6]): active ^c

CCCCOC(=O)c1ccccc1C(=O)OCCCC [Phtalic acid dibutyl ester]
Potency (mol/l) (human AhR [1]): no activity

Oc1cc(O)c2c(c1)O[C@H](c1ccc(O)c(O)c1)[C@H](O)C2 [Epicatechin]
Potency (mol/l) (human AhR [1]; [4]): no activity

OCc1c[nH]c2ccccc12 [Indole-3-carbinol]
EC50 (human AhR [3]): 7 µM
EC50 (human AhR [2]): 7 µM

CC[C@H](CC[C@@H](C)[C@H]1CC[C@H]2[C@@H]3CC=C4C[C@@H](O)CC[C@]4(C)[C@H]3CC[C@]12C)C(C)C [β-Sitosterol]
Potency (mol/l) (human AhR [1]; [4]): no activity
transactivation of the AhR (in words) (human AhR [1]; pure compounds in DMSO): failed also in transactivating the AhR

O=C(O)c1cc(O)c(O)c(O)c1 [Gallic acid]
Potency (mol/l) (human AhR [1]): no activity
transactivation of the AhR (in words) (human AhR [1]): no activity

CC(=O)[C@H]1CC[C@H]2[C@@H]3CCC4=CC(=O)CC[C@]4(C)[C@H]3CC[C@]12C [Progesteron]
Potency (mol/l) (human AhR [1]; [4]): no activity
transactivation of the AhR (in words) (human AhR [1]; pure compounds in DMSO): failed also in transactivating the AhR

COc1ccc(-c2coc3cc(O)ccc3c2=O)cc1 [Formononetin]
EC50 (human AhR [1]): 0.923 µM
EC50 (human AhR [3]): 0.12 to 0.92 µM
EC50 (human AhR [2]): 0.253 µM

C[C@]12CC[C@@H]3c4ccc(O)cc4CC[C@H]3[C@@H]1CC[C@@H]2O [17-β-Estradiol]
Potency (mol/l) (human AhR [1]; [4]): no activity

Catechin
Potency (mol/l) (human AhR [1]; [4]): no activity

O=C(CCc1ccc(O)cc1)c1c(O)cc(O)cc1O [Phloretin]
Potency (mol/l) (human AhR [1]; [4]): no activity

COc1ccc(-c2coc3cc(O)cc(O)c3c2=O)cc1 [Biochanin A]
EC50 (human AhR [1]): 0.599 µM
EC50 (human AhR [2]; [5]): 0.125 µM

COc1cc(/C=C/C(=O)CC(=O)/C=C/c2ccc(O)c(OC)c2)ccc1O [Curcumin]
Potency (mol/l) (human AhR [1]; [4]): no activity

O=c1cc(-c2ccc(O)cc2)oc2cc(O)cc(O)c12 [Apigenin]
Potency (mol/l) (human AhR [1]): active^c
transactivation of the AhR (in words) (human AhR [1]; pure compounds in DMSO): a transactivation took place
Potency (mol/l) (human AhR [2]; [6]): active^c

COc1cc(/C=C/C(=O)O)ccc1O [Ferulic acid]
Potency (mol/l) (human AhR [1]; [4]): no activity
transactivation of the AhR (in words) (human AhR [1]; pure compounds in DMSO): no activity

COc1ccc(-c2cc(=O)c3c(OC)c(OC)c(OC)c(OC)c3o2)cc1 [Tangeritin]
Potency (mol/l) (human AhR [1]): no activity
transactivation of the AhR (in words) (human AhR [1]): no activity
